From patent publication US9346797B1, “2-amino 6-(difluoromethyl)-5,5-difluoro-6-phenyl-3,4,5,6-tetrahydropyridines as BACE1 inhibitors” (H. Lundbeck A/S, priority 2014, dated 2016)

Columns and labels:
P-gp (MDR1) = assay: MDCK-MDR1 assay (permeability/efflux); format: in vitro ADME; conditions: dog, Papp BA/Papp AB, 60-minute incubation, Pgp substrate when ≧2
Procedure: The permeability of the test compounds was assessed in MDCK-MDR1 cells that were cultured to confluency (4-6 days) in a 96 transwell plate. Test compounds were diluted with the transport buffer (HBSS+1% BSA) to a concentration of 0.5 μM and applied to the apical or basolateral side of the cell monolayer. Permeation of the test compounds from A to B direction or B to A direction was determined in triplicate over a 60-minute incubation time at 37° C. and 5% CO2 with a relative humidity of 95%. Test compounds were quantified by LC-MS/MS analysis based on the peaks area ratios of analyte/IS in both the receiver and donor wells of the transwell plate.
The apparent permeability coefficient Papp (cm/s) was calculated using the equation: Papp=(dCr/dt)×Vr/(A×C0)
Where dCr/dt is the cumulative concentration of compound in the receiver chamber as a function of time (μM/s); Vr is the solution volume in the receiver chamber (0.05 mL on the apical side; 0.25 mL on the basolateral side); A is the surface area for the transport, i.e. 0.0804 cm^2 for the area of the monolayer; CO is the initial concentration in the donor chamber (μM).
Compounds are classified Pgp substrates when efflux ratio (Papp BA/Papp AB) is ≧2.

human BACE1 = human BACE1 (Homo sapiens (Human), UniProt P56817); assay: BACE1 binding assay (SPA-based radioligand binding); conditions: pH 4.5, Ki calculated from IC50
Sequence of human BACE1 (P56817 46-501): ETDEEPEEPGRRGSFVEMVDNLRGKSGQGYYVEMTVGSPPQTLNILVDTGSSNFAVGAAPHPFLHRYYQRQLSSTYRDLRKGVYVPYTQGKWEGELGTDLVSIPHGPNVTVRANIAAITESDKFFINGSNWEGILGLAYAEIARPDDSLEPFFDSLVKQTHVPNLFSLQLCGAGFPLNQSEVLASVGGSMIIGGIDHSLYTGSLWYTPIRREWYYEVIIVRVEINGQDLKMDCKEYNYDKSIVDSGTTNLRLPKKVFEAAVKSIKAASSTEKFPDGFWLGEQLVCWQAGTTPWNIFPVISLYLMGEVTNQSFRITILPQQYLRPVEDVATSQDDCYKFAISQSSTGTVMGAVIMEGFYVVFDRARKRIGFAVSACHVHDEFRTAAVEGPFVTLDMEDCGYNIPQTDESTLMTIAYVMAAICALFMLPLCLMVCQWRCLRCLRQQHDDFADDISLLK
Procedure: The binding assay was performed as SPA-based assay using a biotinylated form of human BACE1 recombinantly expressed and subsequently purified from Freestyle HEK293 cells. The binding assay was run in a 50 mM sodium acetate buffer, pH 4.5 containing 50 mM NaCl and 0.03% Tween-20 in white clear bottom 384 plates (Corning #3653). 10 nM (final concentration) radioligand ([^3H]—N-((1S,2R)-1-benzyl-3-cyclopropylamino-2-hydroxy-propyl)-5-(methanesulfonyl-methyl-amino)-N—((R)-1-phenyl-ethyl)-isophthalamide) (TRQ11569 purchased from GE Healthcare) was mixed with test compound at a given concentration, 6 nM (final concentration) human BACE1 and 25 μg Streptavidin coated PVT core SPA beads (RPNQ0007, GE Healthcare Life Sciences) in a total volume of 40 μl. Several concentrations of each test compound were tested in the assay for IC50 determination. The plates were incubated for one hour at room temperature and counted in a Wallac Trilux counter. Total and non-specific binding were determined using buffer and 1 μM (final concentration) of the high affinity BACE1 reference inhibitor (S)-6-[3-chloro-5-(5-prop-1-ynyl-pyridin-3-yl)-thiophen-2-yl]-2-imino-3,6-dimethyl-tetrahydro-pyrimidin-4-one, respectively. For each test compound, a IC50 value (the concentration mediating 50% inhibition of the specific binding of the radioligand) was determined from concentration-response curve and used to calculate the Ki from the equation Ki=IC50/(1+L/Kd), where L and Kd are the final concentration of the radioligand used in the assay and the dissociation constant of the radioligand, respectively. The Kd of the radioligand was determined from saturation binding experiments.

Row | SMILES | efflux ratio at 60 min, 0.5 μM (P-gp (MDR1)) | Ki (human BACE1) [nM]
1 | NC1=N[C@@](c2cc(NC(=O)c3ccc(Cl)cn3)ccc2F)(C(F)F)C(F)(F)CC1 [Compound 1, (S)—N-(3-(6-amino-2-(difluoromethyl)-3,3-difluoro-2,3,4,5-tetrahydropyridin-2-yl)-4-fluorophenyl)-5-chloropicolinamide] | 1.16 | 18
2 | NC1=N[C@@](c2cc(NC(=O)c3ccc(F)cn3)ccc2F)(C(F)F)C(F)(F)CC1 [Compound 2, (S)—N-(3-(6-amino-2-(difluoromethyl)-3,3-difluoro-2,3,4,5-tetrahydropyridin-2-yl)-4-fluorophenyl)-5-fluoropicolinamide] | 1.75 | 23
3 | Cc1nc(C(=O)Nc2ccc(F)c([C@@]3(C(F)F)N=C(N)CCC3(F)F)c2)co1 [Compound 4, (S)—N-(3-(6-amino-2-(difluoromethyl)-3,3-difluoro-2,3,4,5-tetrahydropyridin-2-yl)-4-fluorophenyl)-2-methyloxazole-4-carboxamide] | 4.01 | 20
4 | NC1=N[C@@](c2cc(NC(=O)c3cnc(C(F)F)cn3)ccc2F)(C(F)F)C(F)(F)CC1 [Compound 6, (S)—N-(3-(6-amino-2-(difluoromethyl)-3,3-difluoro-2,3,4,5-tetrahydropyridin-2-yl)-4-fluorophenyl)-5-(difluoromethyl)pyrazine-2-carboxamide] | 1.36 | 20
5 | N#Cc1ccc(C(=O)Nc2ccc(F)c([C@@]3(C(F)F)N=C(N)CCC3(F)F)c2)nc1 [Compound 7, (S)—N-(3-(6-amino-2-(difluoromethyl)-3,3-difluoro-2,3,4,5-tetrahydropyridin-2-yl)-4-fluorophenyl)-5-cyanopicolinamide] | 2.43 | 7.4
6 | Cc1csc(C(=O)Nc2ccc(F)c([C@@]3(C(F)F)N=C(N)CCC3(F)F)c2)n1 [Compound 8, (S)—N-(3-(6-amino-2-(difluoromethyl)-3,3-difluoro-2,3,4,5-tetrahydropyridin-2-yl)-4-fluoro-phenyl)-4-methylthiazole-2-carboxamide] | 0.92 | 71
7 | COc1cnc(C(=O)Nc2ccc(F)c([C@@]3(C(F)F)N=C(N)CCC3(F)F)c2)nc1 [Compound 9, (S)—N-(3-(6-amino-2-(difluoromethyl)-3,3-difluoro-2,3,4,5-tetrahydropyridin-2-yl)-4-fluorophenyl)-5-methoxypyrimidine-2-carboxamide] | 11 | 6.9
8 | COc1cnc(C(=O)Nc2ccc(F)c([C@@]3(C(F)F)N=C(N)CCC3(F)F)c2)c(C)n1 [Compound 10, (S)—N-(3-(6-amino-2-(difluoromethyl)-3,3-difluoro-2,3,4,5-tetrahydropyridin-2-yl)-4-fluorophenyl)-5-methoxy-3-methylpyrazine-2-carboxamide] | 0.98 | 16
9 | Cc1cc(C#N)cnc1C(=O)Nc1ccc(F)c([C@@]2(C(F)F)N=C(N)CCC2(F)F)c1 [Compound 11, (S)—N-(3-(6-amino-2-(difluoromethyl)-3,3-difluoro-2,3,4,5-tetrahydropyridin-2-yl)-4-fluorophenyl)-5-cyano-3-methylpicolinamide] | 2.68 | 7.8
10 | NC1=N[C@@](c2cc(NC(=O)c3ccc(Br)cn3)ccc2F)(C(F)F)C(F)(F)CC1 [Compound 12, (S)—N-(3-(6-amino-2-(difluoromethyl)-3,3-difluoro-2,3,4,5-tetrahydropyridin-2-yl)-4-fluorophenyl)-5-bromopicolinamide] | 1.31 | 6.1
